Source: patent US12527773B2, “Flavi-block: a pan-flavivirus inhibitor” (Baden-Württemberg Stiftung GmbH, priority 2020, dated 2026)
Read-outs that look alike come from different tables or passages of the source.

How the values were obtained:
[1] = system: DENV, ZIKV and KUNV; assay: Inhibition of flavivirus infection, summary bounds over DENV, ZIKV and KUNV; type: cell-based
Experimental: Vero cells were seeded into 24-well plates at a density of 2×10^5 cells/well and grown overnight in culture medium at 37° C. with 5% CO2 prior to infection with RSV, KUNV, ZIKV as indicated. BHK-21 cells were used for DENV1-4. The virus inoculum was removed and replaced with semisolid overlays of 0.8% aquacide II (Calbiochem) in DMEM+2% FBS, and the mixture was incubated at 37° C. with 5% CO2. After 3-5 days, the cells were fixed with neutral buffered formalin (Sigma) for 3 h at room temperature, rinsed with tap water, and stained with 1% crystal violet for 10 min. The stain was removed by rinsing the cells with tap water, and the viral plaques were counted visually. Dose-response curves were plotted from the plaque number versus the log of the concentration of the test compounds.
(§1) Viral RNA was extracted using Isolate II RNA extraction kit (Bioline), and the absolute number of RNA copies determined by Taqman One Step RT-qPCR (Applied Biosystems) by extrapolation from a standard curve generated from in vitro—transcribed virus RNA.
(§2) It was decided to test the ability of C10 to inhibit the flaviviruses DENV1-4, KUNV and ZIKV, in addition to the paramyxovirus RSV, as a control.

[2] = system: HBV; assay: IC50 in established virological assays (Table 1), HBV; type: cell-based, Hepatits B Virus
Experimental: In summary, a set of C10 derivatives (FIG. 12) was designed, synthesized and tested against HCV (which is considered as an established system to monitor drug effects against Flaviviridae) as well as DENV for comprehensive structure-activity relationship (SAR) analysis and target validation. IC50 and CC50 values for compound C10 were determined in established virological assays (Table 1). […] Further, said experiments underline the specificity of compound C10 for flaviviruses.

[3] = system: KUNV; assay: RT-qPCR analysis of virus genomes, KUNV; type: cell-based, Kunjin virus; settings: West Nile virus
Experimental: (§3) Vero cells were infected with KUNV at an MOI of 1 for 2 h (post infection), after which virus was removed, and fresh maintenance medium containing 2% FCS together with the indicated concentration of C10 added. For co-treat condition, Vero cells were infected with KUNV at an MOI of 1 in the presence of C10 for 2 h, followed by removal of the virus/C10 inoculums, and addition of fresh 2% fetal calf serum maintenance medium.
as §1, §2

[4] = system: DENV3; assay: Plaque assay of released virus, DENV3-infected Vero cells; type: cell-based; settings: Dengue virus
Experimental: as §3, with “DENV1-4” for “KUNV”, “infection, p.i., (A)),” for “infection),”, “condition (c.t., (B)),” for “condition,”, “medium. […] Results represent the mean ±SD for duplicate wells from a single assay, representative of 2 independent experiments (cf. Tables 2A and 2B, infra, for pooled data).” for “medium.”
Vero and BHK-21 cells were maintained in DMEM media supplemented with 10% heat-inactivated FBS at 37° C. in a humidified incubator supplemented with 5% CO2; A549 cells were maintained in F-12K medium supplemented with 10% heat-inactivated Fetal Bovine Serum (FBS), 2 mM L-glutamine, 50 U/I penicillin, 0.05 mg/l streptomycin. […] Viral titer was subsequently determined by plaque assay (see below).
Vero cells were seeded into 24-well plates at a density of 2×10^5 cells/well and grown overnight in culture medium at 37° C. with 5% CO2 prior to infection with RSV, KUNV, ZIKV as indicated. […] The stain was removed by rinsing the cells with tap water, and the viral plaques were counted visually. […]

[5] = Pharmacokinetic study in Balb/c mice, peroral administration; type: in vivo; settings: for Plasma concentration, Group A-D: single animals
Experimental: Study design, animal selection, handling and treatment were all in accordance with the study protocols and institutional animal care and use guidelines. Male Balb/c mice (9-10 weeks old, body weight 22.3 to 38.1 g and average body weight across all groups 31.4 g, SD=3.20 g) were used in this study. The animals were randomly assigned to the treatment groups before the pharmacokinetic study; all animals were fasted for 4 h before dosing. Six time points for PO (15, 30, 60, 120, 240 and 360 min) and IV (5, 15, 30, 60, 120 and 240 min) routes were used in this pharmacokinetic study. Each of the PO and IV time point treatment groups included 4 animals. There was also control group of 2 animals. Dosing was done according to the treatment schedules outlined in Table 3. Mice were injected IV with 2,2,2-tribromoethanol at the dose of 150 mg/kg prior to taking blood. Blood collection was performed from the orbital sinus in microtainers containing K2EDTA. Animals were sacrificed by cervical dislocation after blood samples collection. All samples were immediately prepared, flash-frozen and stored at −70° C. until subsequent bioanalysis.
Samples Processing Plasma samples ([…]) were mixed with […] of IS solution. After mixing by pipetting and centrifuging for 4 min at 6,000 rpm, […] of each supernatant was injected into LC-MS/MS system. Solution of compound IS-02-03 (200 ng/ml in acetonitrile-methanol mixture, 1:1, v/v) was used as internal standard (IS) for quantification of C10 in plasma samples. Samples Analysis The concentrations of C10 were determined using high performance liquid chromatography/tandem mass spectrometry (HPLC-MS/MS). Shimadzu H PLC system comprised of 2 isocratic pumps LC-10Advp, an autosampler SIL-HTc, a sub-controller FCV-14AH and a degasser DGU-14A. Mass spectrometric analysis was performed using an API 3000 (triple-quadrupole) instrument from AB Sciex (Canada) with an electro-spray (ESI) interface. The data acquisition and system control was performed using Analyst 1.5.2 software from AB Sciex. HPLC-MS/MS Conditions
The pharmacokinetic data analysis was performed using non-compartmental, bolus injection or extravascular input analysis models in WinNonlin 5.2 (PharSight). Data below LLOQ were presented as missing to improve validity of T1/2 calculations. No outlier data points were removed from calculations. The bioavailability for the peroral route was calculated as: […]

With `CCN1/C(=C\C=C\c2sc3cc(NC(C)=O)ccc3[n+]2CC)Sc2cc(NC(C)=O)ccc21.[I-]` [C10, 6-acetamido-2-((1E,3E)-3-(6-acetamido-3-ethylbenzo[d]thiazol-2(3H)-ylidene)prop-1-en-1-yl)-3-ethylbenzo[d]thiazol-3-ium iodide] the EC50 ([1]; c.t., DENV, ZIKV and KUNV infection, read-out: EC50) was under 500 nM, the EC50 ([1]; c.t., read-out: EC50, infectious virus (plaque-forming units)) was under 100 nM and the EC50 ([1]; c.t., read-out: EC50, virus genomes by RT-qPCR) was under 500 nM. For the same compound, the EC50 ([1]; p.i., DENV, ZIKV and KUNV infection, read-out: EC50) was under 2000 nM, the EC50 ([1]; p.i., read-out: EC50, virus genomes by RT-qPCR) was under 1700 nM and the EC50 ([1]; read-out: EC50, infectious virus (plaque-forming units), p.i.) was under 1500 nM. The EC50 ([1]; read-out: EC50s for co-addition, all serotypes of DENV, ZIKV and WNV, plaque assays or qPCR) was 10 to 100 nM, the “activity against Hepatits B Virus (HBV)” value [2] was “inactive or has only minor activity” and the IC50 ([2]; Hepatitis B virus, HBV) was over 10000 nM. It also gave an EC50 ([3]; read-out: EC50 from RT-qPCR analysis, KUNV, c.t.) of 310 ± 180 nM, an EC50 ([3]; read-out: EC50 from RT-qPCR analysis, KUNV, p.i.) of 1680 ± 640 nM and an EC50 ([4]; read-out: EC50 from plaque assays, DENV3, c.t.) of 10 nM. For the same compound, the EC50 ([4]; read-out: EC50 from plaque assays, DENV3, p.i.) was 600 nM, the oral bioavailability ([5]; PO 10 mg/kg versus IV 5 mg/kg) was “zero” and the “Plasma concentration, Mean” value ([5]; PO 10 mg/kg, 15 min) was 0 ng(ml). The “Plasma concentration, Group A-D” value ([5]; PO 10 mg/kg, 15 min, below LLOQ 10 ng/ml designated as zero) was 0 ng(ml), the “Plasma concentration, Mean” value ([5]; PO 10 mg/kg, 30 min) was 0 ng(ml) and the “Plasma concentration, Group A-D” value ([5]; PO 10 mg/kg, 30 min, below LLOQ designated as zero) was 0 ng(ml). For the same compound, the “Plasma concentration, Mean” value ([5]; PO 10 mg/kg, 60 min) was 0 ng(ml), the “Plasma concentration, Group A-D” value ([5]; PO 10 mg/kg, 60 min, below LLOQ designated as zero) was 0 ng(ml) and the “Plasma concentration, Mean” value ([5]; PO 10 mg/kg, 120 min) was 0 ng(ml). The “Plasma concentration, Group A-D” value ([5]; PO 10 mg/kg, 120 min, below LLOQ designated as zero) was 0 ng(ml), the “Plasma concentration, Mean” value ([5]; PO 10 mg/kg, 240 min) was 0 ng(ml) and the “Plasma concentration, Group A-D” value ([5]; PO 10 mg/kg, 240 min, below LLOQ designated as zero) was 0 ng(ml). The “Plasma concentration, Mean” value ([5]; PO 10 mg/kg, 360 min) was 0 ng(ml), the “Plasma concentration, Group A-D” value ([5]; PO 10 mg/kg, 360 min, below LLOQ designated as zero) was 0 ng(ml) and the “plasma levels following PO dosing” value ([5]; PO 10 mg/kg, LLOQ 10 ng/ml) was “below the lower limit of quantitation”.
